Test results as given in paper PMC4159296, “Antibodies to the Extracellular Pore Loop of TRPM8 Act as Antagonists of Channel Activation” (PLoS ONE, 2014).
Entries after “also recorded” stand apart in the source; their conditions may differ. Where two headings read alike, the source gives them in different places.

Tests used:
Format in all cases: cell-based
[1] = target: T1, human TRPM8 (Homo sapiens, UniProt Q7Z2W7); assay: agonist-induced 45Ca2+ uptake assay, CHO cells expressing human TRPM8; details: for IC50: CHO cells, mean ± SD; for block of icilin-induced 45Ca2+ uptake, human TRPM8 in CHO cells: single concentration/volume, 30 µl antibody solution, stock concentrations not provided, Fig. 6A
T1 construct: expressed in transfected cells; host or cells: T-REx-CHO (Chinese hamster ovary), tetracycline-induced
T1 sequence (Q7Z2W7 whole entry): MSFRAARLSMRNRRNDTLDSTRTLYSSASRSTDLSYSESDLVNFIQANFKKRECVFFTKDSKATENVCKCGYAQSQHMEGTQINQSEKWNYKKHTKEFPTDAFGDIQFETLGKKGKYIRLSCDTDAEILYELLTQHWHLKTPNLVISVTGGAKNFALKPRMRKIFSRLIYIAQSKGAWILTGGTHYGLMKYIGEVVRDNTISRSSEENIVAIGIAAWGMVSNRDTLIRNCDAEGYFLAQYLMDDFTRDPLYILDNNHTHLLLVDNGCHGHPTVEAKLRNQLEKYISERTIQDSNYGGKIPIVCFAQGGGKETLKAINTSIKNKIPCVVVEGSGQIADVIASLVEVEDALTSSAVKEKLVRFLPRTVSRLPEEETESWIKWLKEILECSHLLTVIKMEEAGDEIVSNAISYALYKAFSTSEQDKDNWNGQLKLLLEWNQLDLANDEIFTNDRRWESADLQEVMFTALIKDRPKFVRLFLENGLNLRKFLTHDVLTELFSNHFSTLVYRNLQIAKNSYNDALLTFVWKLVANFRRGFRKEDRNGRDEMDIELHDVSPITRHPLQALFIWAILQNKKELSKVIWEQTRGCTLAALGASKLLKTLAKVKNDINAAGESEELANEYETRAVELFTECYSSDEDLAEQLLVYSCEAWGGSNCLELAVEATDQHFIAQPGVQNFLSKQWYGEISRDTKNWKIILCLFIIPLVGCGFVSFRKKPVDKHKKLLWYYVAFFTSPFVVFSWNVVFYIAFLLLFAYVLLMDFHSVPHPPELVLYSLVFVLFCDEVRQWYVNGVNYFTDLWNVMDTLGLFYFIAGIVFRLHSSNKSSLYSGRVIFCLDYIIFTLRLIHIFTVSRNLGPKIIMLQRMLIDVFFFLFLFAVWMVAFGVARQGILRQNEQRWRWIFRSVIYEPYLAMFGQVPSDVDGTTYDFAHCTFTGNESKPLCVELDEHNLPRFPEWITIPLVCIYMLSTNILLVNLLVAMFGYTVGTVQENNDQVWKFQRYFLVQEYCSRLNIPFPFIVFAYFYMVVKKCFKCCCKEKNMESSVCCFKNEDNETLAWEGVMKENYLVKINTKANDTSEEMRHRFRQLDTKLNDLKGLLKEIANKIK
Procedure: (§1) Complementary DNAs of recombinant human, rat and mouse TRPM8 were stably transfected into Tetracycline-Regulated Expression cell line, T-REx-Chinese hamster ovary cell line from Invitrogen, Inc. (Carlsbad, CA). Twenty four hours before the assay, cells were seeded in Cytostar-T 96-well plates at a density of 3.0×10^4 per well, and TRPM8 channel expression was induced with 0.5 µg/ml tetracycline. On the day of the assay, culture media were removed, and cells were incubated with TRPM8 antibody (ACC-049), antagonist M8-B, or control IgG for 30 min before addition of ^45Ca^2+. Stock solutions of ACC-049, M8-B, and control IgG were diluted to the desired final concentrations in the assay buffer (F-12 Ham's containing 15 mM HEPES and 0.1 mg/ml BSA) keeping the final concentration of DMSO lower than 0.5% for M8-B. The activity of TRPM8 was monitored as function of cellular uptake of radioactive calcium. The final concentration of ^45Ca^2+in the ^45Ca^2+ uptake assay was 10 µCi/ml. […] For cold activation of TRPM8, cold assay buffer at 10°C was used. ACC-049 was assayed in cells stably expressing human, rat, or mouse TRPM8 channels. The other commercial antibodies listed in Table 1 were assayed at a single concentration in 30 µl in icilin induced activation of human TRPM8 channels. The TRPM8 antagonist M8-B was used as a positive control and control IgG was used as a negative control in all assays. TRPM8 activation was calculated as percent of control (POC) with agonist (cold, icilin or menthol) induced radioactive calcium uptake set as 100 percent and assay buffer only plus ^45Ca^2+ set as zero percent with exception of cold activation, where blockade with M8-B at 1 µM was set as zero percent. Evaluation of antagonism at heat activation of TRPV1 [26], and noxious cold temperature activation of TRPA1 [24] was conducted as reported previously.
(§2) GraphPad Prism 5.0 (GraphPad Software, Inc., San Diego, CA) software was used to plot the data and to calculate the 50% inhibitory concentrations (IC50) of compounds and antibodies using a sigmoidal dose-response equation.

[2] = target: T2, rat TRPM8 (Rattus norvegicus, UniProt Q8R455); assay: agonist-induced 45Ca2+ uptake assay, CHO cells expressing rat TRPM8; details: mean ± SD
T2 construct: expressed in transfected cells; host or cells: T-REx-CHO (Chinese hamster ovary), tetracycline-induced
T2 sequence (Q8R455 whole entry): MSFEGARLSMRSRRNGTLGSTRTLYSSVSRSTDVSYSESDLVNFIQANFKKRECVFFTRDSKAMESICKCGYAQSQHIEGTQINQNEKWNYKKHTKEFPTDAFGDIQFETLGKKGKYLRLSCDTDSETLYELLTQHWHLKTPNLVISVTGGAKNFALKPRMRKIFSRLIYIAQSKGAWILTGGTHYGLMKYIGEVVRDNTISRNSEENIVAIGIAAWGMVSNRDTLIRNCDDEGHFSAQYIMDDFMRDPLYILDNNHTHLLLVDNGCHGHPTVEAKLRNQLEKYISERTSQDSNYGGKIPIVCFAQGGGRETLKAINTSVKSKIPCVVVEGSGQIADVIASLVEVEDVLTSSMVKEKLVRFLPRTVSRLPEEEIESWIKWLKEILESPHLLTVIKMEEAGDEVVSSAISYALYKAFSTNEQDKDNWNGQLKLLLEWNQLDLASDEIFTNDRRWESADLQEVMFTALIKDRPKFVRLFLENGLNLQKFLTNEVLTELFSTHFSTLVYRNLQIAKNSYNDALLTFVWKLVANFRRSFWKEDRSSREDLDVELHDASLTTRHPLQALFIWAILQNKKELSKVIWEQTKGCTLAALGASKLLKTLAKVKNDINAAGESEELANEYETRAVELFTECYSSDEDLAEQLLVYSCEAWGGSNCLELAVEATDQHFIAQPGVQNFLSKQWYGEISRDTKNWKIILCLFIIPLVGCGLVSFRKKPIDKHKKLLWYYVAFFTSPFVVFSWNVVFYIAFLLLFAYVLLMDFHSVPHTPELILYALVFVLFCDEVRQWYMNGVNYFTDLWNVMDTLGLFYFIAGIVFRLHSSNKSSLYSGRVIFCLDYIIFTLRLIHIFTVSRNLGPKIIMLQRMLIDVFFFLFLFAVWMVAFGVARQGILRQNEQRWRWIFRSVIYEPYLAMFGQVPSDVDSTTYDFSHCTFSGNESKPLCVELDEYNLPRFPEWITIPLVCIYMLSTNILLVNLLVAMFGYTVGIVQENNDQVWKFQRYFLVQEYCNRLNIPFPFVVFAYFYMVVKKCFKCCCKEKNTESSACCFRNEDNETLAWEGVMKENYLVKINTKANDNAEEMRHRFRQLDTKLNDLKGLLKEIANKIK
Procedure: as §1, §2

[3] = target: T3, mouse TRPM8 (Mus musculus, UniProt Q8R4D5); assay: agonist-induced 45Ca2+ uptake assay, CHO cells expressing mouse TRPM8; details: mean ± SD
T3 construct: expressed in transfected cells; host or cells: T-REx-CHO (Chinese hamster ovary), tetracycline-induced
T3 sequence (Q8R4D5 whole entry): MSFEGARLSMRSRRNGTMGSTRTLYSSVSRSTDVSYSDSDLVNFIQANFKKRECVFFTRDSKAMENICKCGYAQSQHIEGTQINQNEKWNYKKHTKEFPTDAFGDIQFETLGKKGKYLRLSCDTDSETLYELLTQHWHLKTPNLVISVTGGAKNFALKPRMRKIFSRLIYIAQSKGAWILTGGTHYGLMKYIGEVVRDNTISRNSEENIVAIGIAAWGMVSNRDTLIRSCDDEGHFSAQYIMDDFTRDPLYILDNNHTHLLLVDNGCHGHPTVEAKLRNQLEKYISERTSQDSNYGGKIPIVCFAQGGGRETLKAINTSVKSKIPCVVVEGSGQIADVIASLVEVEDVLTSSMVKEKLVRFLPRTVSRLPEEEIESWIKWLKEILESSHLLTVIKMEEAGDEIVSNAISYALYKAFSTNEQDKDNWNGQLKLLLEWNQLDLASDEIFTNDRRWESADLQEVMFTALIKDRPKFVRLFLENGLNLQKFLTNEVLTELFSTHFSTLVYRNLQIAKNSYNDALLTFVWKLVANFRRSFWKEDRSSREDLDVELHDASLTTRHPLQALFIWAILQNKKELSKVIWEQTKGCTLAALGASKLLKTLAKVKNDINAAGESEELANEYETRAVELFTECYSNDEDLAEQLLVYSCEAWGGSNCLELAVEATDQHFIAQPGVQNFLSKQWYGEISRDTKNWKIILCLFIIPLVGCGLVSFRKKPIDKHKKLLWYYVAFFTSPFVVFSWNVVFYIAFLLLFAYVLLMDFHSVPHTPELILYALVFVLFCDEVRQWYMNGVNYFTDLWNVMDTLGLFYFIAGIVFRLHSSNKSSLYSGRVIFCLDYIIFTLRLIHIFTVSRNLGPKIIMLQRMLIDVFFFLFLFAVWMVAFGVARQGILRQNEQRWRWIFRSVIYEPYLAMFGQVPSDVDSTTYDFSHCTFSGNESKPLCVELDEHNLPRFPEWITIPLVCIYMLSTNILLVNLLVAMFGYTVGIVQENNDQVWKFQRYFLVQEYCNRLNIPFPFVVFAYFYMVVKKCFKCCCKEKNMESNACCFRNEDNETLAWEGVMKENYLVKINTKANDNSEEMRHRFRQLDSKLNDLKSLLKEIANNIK
Procedure: as §1, §2

[4] = target: T4, endogenous TRPM8 expressed in rat dorsal root ganglion neurons (Rattus norvegicus, UniProt Q8R455); assay: icilin-induced 45Ca2+ uptake assay in freshly isolated rat DRG neurons; details: 1 µM icilin; same single concentration/volume of antibodies; Fig. 6B
T4 construct: endogenous in cells; host or cells: primary dorsal root ganglion neurons from male Sprague Dawley rats
T4 sequence (Q8R455 whole entry): as the sequence (Q8R455 whole entry) above

[5] = target: human TRPA1 (Homo sapiens, UniProt O75762); assay: noxious cold temperature activation of human TRPA1, 45Ca2+ uptake; details: ACC-049 and control IgG 2.5 µM; peptide 10 µM; Fig. 2
human TRPA1, sequence (O75762 whole entry): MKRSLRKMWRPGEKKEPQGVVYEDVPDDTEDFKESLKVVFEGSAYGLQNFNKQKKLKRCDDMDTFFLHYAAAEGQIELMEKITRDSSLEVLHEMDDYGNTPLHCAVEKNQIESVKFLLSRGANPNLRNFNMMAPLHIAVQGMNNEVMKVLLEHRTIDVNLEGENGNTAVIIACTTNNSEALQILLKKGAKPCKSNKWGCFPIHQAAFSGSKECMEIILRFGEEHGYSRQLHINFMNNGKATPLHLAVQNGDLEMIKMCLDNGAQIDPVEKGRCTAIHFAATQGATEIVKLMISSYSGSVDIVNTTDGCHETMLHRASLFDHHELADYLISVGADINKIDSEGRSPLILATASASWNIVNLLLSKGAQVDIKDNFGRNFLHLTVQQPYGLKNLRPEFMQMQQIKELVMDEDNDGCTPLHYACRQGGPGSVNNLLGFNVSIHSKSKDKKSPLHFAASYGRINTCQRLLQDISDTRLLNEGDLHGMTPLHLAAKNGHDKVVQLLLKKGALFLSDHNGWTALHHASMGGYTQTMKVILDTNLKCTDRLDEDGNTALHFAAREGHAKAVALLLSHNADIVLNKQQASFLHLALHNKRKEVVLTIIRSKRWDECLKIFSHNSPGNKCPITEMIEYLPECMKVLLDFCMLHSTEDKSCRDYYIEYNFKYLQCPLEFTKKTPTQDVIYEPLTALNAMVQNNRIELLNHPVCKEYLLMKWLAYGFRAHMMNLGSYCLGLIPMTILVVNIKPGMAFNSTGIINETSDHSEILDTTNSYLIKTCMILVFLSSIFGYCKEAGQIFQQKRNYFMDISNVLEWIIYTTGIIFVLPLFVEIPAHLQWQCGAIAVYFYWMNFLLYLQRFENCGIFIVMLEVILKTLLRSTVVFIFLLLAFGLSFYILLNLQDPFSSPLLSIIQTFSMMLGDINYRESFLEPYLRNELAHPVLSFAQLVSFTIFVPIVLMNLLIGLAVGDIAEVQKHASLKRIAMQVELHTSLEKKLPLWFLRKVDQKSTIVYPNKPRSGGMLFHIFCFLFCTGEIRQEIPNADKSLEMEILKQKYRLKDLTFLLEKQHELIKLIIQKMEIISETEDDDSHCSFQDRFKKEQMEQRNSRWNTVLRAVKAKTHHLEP
Procedure: as §1, with “ACC-049 was assayed in cells stably expressing human, rat, or mouse TRPM8 channels. The other commercial antibodies listed in Table 1 were assayed at a single concentration in 30 µl in icilin induced activation of human TRPM8 channels. The TRPM8 antagonist M8-B was used as a positive control and control IgG was used as a negative control in all assays.” left out, “Evaluation of antagonism at heat activation of TRPV1 [26], and noxious cold temperature activation of TRPA1 [24] was conducted as reported previously.” left out

[6] = target: human TRPV1 (Homo sapiens, UniProt Q8NER1); assay: heat activation of human TRPV1, 45Ca2+ uptake; details: ACC-049 and control IgG 2.5 µM; peptide 10 µM; Fig. 2
Procedure: as §1, with “ACC-049 was assayed in cells stably expressing human, rat, or mouse TRPM8 channels. The other commercial antibodies listed in Table 1 were assayed at a single concentration in 30 µl in icilin induced activation of human TRPM8 channels. The TRPM8 antagonist M8-B was used as a positive control and control IgG was used as a negative control in all assays.” left out, “Evaluation of antagonism at heat activation of TRPV1 [26], and noxious cold temperature activation of TRPA1 [24] was conducted as reported previously.” left out

Compound | IC50 ([1]; 1 µM icilin, triplicate wells, read-out: IC50, icilin induced human TRPM8 channel activation) | block of icilin-induced 45Ca2+ uptake, human TRPM8 in CHO cells ([1]; 1 µM icilin) | IC50 ([1]; 100 µM menthol, triplicate wells, read-out: IC50, menthol induced human TRPM8 channel activation) | IC50 ([1]; cold 10°C, one experiment in triplicate wells, read-out: IC50, cold induced human TRPM8 channel activation) | IC50 ([2]; 1 µM icilin, triplicate wells, read-out: IC50, icilin induced rat TRPM8 channel activation) | IC50 ([2]; 100 µM menthol, triplicate wells, read-out: IC50, menthol induced rat TRPM8 channel activation) | IC50 ([2]; cold 10°C, one experiment in triplicate wells, read-out: IC50, cold induced rat TRPM8 channel activation) | IC50 ([3]; 1 µM icilin, triplicate wells, read-out: IC50, icilin induced mouse TRPM8 channel activation) | IC50 ([3]; 100 µM menthol, triplicate wells, read-out: IC50, menthol induced mouse TRPM8 channel activation) | IC50 ([3]; cold 10°C, one experiment in triplicate wells, read-out: IC50, cold induced mouse TRPM8 channel activation) | block of icilin-induced 45Ca2+ uptake, rat DRG neurons [4] | blockade of cold activation of human TRPM8, single concentration ([1]; ACC-049 and control IgG 2.5 µM, peptide 10 µM, cold, Fig. 2) | blockade of icilin activation of human TRPM8, single concentration ([1]; ACC-049 and control IgG 2.5 µM, peptide 10 µM, icilin, Fig. 2) | effect on noxious cold temperature activation of human TRPA1, single concentration [5] | effect on heat activation of human TRPV1, single concentration [6]
COc1cc(CN(CCN)C(=O)c2cccs2)ccc1OCc1ccccc1 [M8-B] | 11 ± 1.2 nM | fully; also recorded: completely blocked | 1 ± 1.4 nM | 3 ± 1.1 nM | 11 ± 1.1 nM | 2 ± 1.3 nM | 2 ± 1.2 nM | 6 ± 1.1 nM | 2 ± 1.2 nM | 2 ± 1.2 nM | full inhibition | – | – | – | –
SDVD GTTYDFAHC (N-terminal SDVD) [peptide, cognate peptide of ACC-049, amino acid residues 917-929 of human TRPM8] | – | no effects | – | – | – | – | – | – | – | – | did not affect | no effects | no effects | no effects | no effects
